Reference: US20230233617A1, “METHODS FOR DIFFERENTIATING STEM CELLS INTO DOPAMINERGIC PROGENITOR CELLS” (JZ CELL TECHNOLOGIES AB, priority 2020, published 2023)

Assays:
Assay type in all cases: cell-based, human
β-catenin = test: β-CATENIN nuclear levels in cultures at 2 DDC; details: dSMADi+SAG
Text: FIG. 2: Specification of NSC with ventral midbrain identity using RA and SHH signaling. (a) Schematic of hPSCs differentiation with timeline of treatment with RA and activator of SHH signaling (SAG) (top). Immunocytochemistry for indicated markers at 9 DDC in cultures differentiated in dSMADi+SAG-condition and pulsed with RA for 1-, 2- or 4-days (bottom). (b) Relative gene expression (FPKM) of indicated genes in 9 DDC cultures differentiated in dSMADi+SAG-conditions and treated with RA for the indicated time. (c) Heatmap and hierarchical clustering of differentially expressed genes of 9 DDC cultures differentiated in dSMADi+SAG-condition and treated with RA for the indicated time. (d) Schematic of gene expression profiles defining distinct ventral progenitors in the diencephalon (Di), midbrain (MB) and hindbrain (HB) positions. (e) Expression of genes associated with the indicated regional progenitors at 14 DDC in cultures differentiated in dSMADi+SAG+RA^2D condition. (f) Immunocytochemistry for β-CATENIN (left) and boxplots of β-CATENIN nuclear levels (right) in cultures at 2 DDC differentiated in dSMADi+SAG-condition (control) and treated with RA or CHIR99021. Boxplot, whiskers define 5th and 95th percentile. Asterisks, Student t test; **p<0.01, ***p<0.001. (g) Immunocytochemistry for the indicated markers in cultures at 14 DDC differentiated in dSMADi+SAG+RA^2D condition. […]

CYP26A1 = CYP26A1 expression in hPSC cultures; details: 50-1,000 nM RA, dSMADi
Protocol: (d) Effect of RA concentration (50, 100, 300, 500 and 1,000 nM RA) on CYP26A1 expression in 1 DDC cultures differentiated in dSMADi-condition. (e) Temporal expression profile of CYP26A1 in cultures differentiated in dSMADi and pulsed with no RA or 300, 500 or 1,000 nM of RA for 2 days. […] (g) Relative gene expression of indicated genes in 9 DDC cultures differentiated in RA^1D+SAG condition and in the presence of different concentrations of the CYP26 inhibitor R115866. […] (c-e) values, mean±S.D.
Total RNA was isolated using Quick-RNA Mini Prep Plus kit (Zymo Research). cDNA was prepared using Maxima First Strand cDNA synthesis kit (Thermo Fisher Scientific). Quantitative Real-Time PCR was performed in a 7500 Fast Real Time PCR system thermal cycler using Fast SYBR Green PCR Master Mix (Applied Biosystems). Analysis of gene expression was performed using the 2-ΔΔCt method, where relative gene expression was normalized to GAPDH transcript levels.

[1] = test system: hPSC-derived ventral midbrain dopaminergic progenitors; test: Specification of caudal midbrain identity (EN1 immunocytochemistry); details: RA^2D+SAG
Protocol: (a) (a) Immunocytochemical analysis of ventral MB progenitor identities at 14 DDC. […] Nuclei of cells visualized with DAPI staining. (b) Immunocytochemistry of dopaminergic neuron marker TH and caudal midbrain marker EN1 expression in 40 DDC cultures differentiated in indicated conditions.
Cells were fixed for 12 min at room temperature (RT) in 4% paraformaldehyde in PBS, rinsed 3 times in PBST (PBS with 0.1% Triton-X100), and blocked for 1 hour at RT with blocking solution (3% FCS/0.1% Triton-X100 in PBS). Cells were then incubated with primary antibodies overnight at 4° C., followed by incubation with fluorophore-conjugated secondary antibodies for 1 hour at RT. Both primary and fluorophore-conjugated secondary antibodies were diluted in blocking solution. Primary antibodies used are listed in Supplementary Table 1. Appropriate Alexa (488, 555, 647)-conjugated secondary antibodies (Molecular Probes) were used.
Mechanisms underlying specification of midbrain dopamine neuron subtypes remains poorly resolved, but is likely to involve sub-patterning of ventral midbrain dopaminergic progenitors along the mediolateral and rostro-caudal axes of the midbrain (Brignani, S, and Pasterkamp, R. J., Front. Neuroanat. 11, 1-18 (2017)). WNT1 signaling emanating from the isthmic organizer at the midbrain-hindbrain boundary establish polarity of midbrain progenitors along the rostro-caudal axis by inducing a caudal^HIGH-to-rostral^LOW expression gradient of the homeodomain proteins EN1 and EN2 (Wurst, W. and Bally-Cuif, L. Nat. Rev. Neuroscience 2, 99-108 (2001)).

CC1=C(/C=C/C(C)=C/C=C/C(C)=C/C(=O)O)C(C)(C)CCC1 [RA, all-trans retinoic acid]
β-catenin in nuclei (β-catenin): no accumulation of β-catenin in nuclei
CYP26A1 expression (CYP26A1): concentration-dependent activation and adaptive temporal expression of CYP26A1
identity of ventral midbrain progenitors (EN1) ([1]; 14DDC): LMX1A^+/OTX2^+/EN1^− identity
EN1 expression in TH+ dopamine neurons ([1]; 40DDC): a small proportion of TH^+ dopamine neurons expressed EN1
